Results reported in publication PMC7179274, “6′-β-Fluoro-Homoaristeromycin and 6′-Fluoro-Homoneplanocin A Are Potent Inhibitors of Chikungunya Virus Replication through Their Direct Effect on Viral Nonstructural Protein 1” (Antimicrobial Agents and Chemotherapy, 2020).
Residue numbers refer to the chain shown, from its start. “Also recorded” adds a separate entry of the source. Read-outs that look alike come from different tables or passages of the source.

Tests used:
[1] = tested on: SINV; assay: CPE reduction assay, SINV; settings: VeroE6 cells, MOI 0.025
[2] = tested on: CHIKV; assay: CPE reduction assay, CHIKV
[3] = tested on: CHIKV; assay: Viral load reduction (single-cycle dose response) assay, CHIKV
[4] = tested on: rCHIKV G230R+K299E and rCHIKV G230R+K299E+*524R; format: cell-based, Chikungunya virus; settings: 10 μM, both mutant viruses, MOI 1
[5] = tested on: rCHIKV mutants; assay: microbe, parasite or virus in culture; format: cell-based, Chikungunya virus; settings: for EC50: read-out: Mean EC50 ± SD
[6] = target: host enzyme SAH hydrolase; parameters: method as in PMID 26010585; settings: in vitro; read-out: 50% inhibitory concentration, SAH hydrolase; cited from earlier work
[7] = tested on: SFV; assay: CPE reduction assay, SFV
[8] = target: T1, wt SFV nsP1 (Semliki forest virus, UniProt P08411); assay: nsP1 enzymatic activity assay (m7GMP-nsP1 intermediate formation), wt; settings: for Inhibition of wt SFV nsP1: 10 μM SAM
T1 sequence (P08411 1-537): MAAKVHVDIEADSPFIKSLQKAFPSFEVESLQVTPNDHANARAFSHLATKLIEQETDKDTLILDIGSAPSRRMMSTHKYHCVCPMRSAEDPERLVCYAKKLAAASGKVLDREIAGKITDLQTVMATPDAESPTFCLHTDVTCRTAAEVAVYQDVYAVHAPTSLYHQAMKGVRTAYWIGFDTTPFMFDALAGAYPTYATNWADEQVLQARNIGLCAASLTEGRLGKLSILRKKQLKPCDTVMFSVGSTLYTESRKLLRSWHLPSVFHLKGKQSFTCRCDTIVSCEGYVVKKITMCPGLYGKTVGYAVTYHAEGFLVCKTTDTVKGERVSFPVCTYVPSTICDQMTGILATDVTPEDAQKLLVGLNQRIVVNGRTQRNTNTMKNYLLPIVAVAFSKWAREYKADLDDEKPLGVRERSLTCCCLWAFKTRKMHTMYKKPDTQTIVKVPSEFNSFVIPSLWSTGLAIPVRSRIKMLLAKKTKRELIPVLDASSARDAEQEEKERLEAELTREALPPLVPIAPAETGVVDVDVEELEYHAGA

[9] = tested on: VeroE6 cells; assay: Cytotoxicity in uninfected cells (MTS/PMS) of the CPE reduction assay
[10] = tested on: FHNA-resistant CHIKV variants; format: cell-based; settings: for Fold resistance: EC50 variant/EC50 wt; for EC50: read-out: Mean EC50 ± SD
[11] = target: T2, SFV nsP1 K231R+K300E (Semliki forest virus, UniProt P08411, K231R/K300E); format: biochemical
T2 sequence (P08411 1-537 K231R/K300E): T1 sequence (P08411 1-537) with K231R, K300E

[12] = 1 mM compound + 1 mM NAD+, absence of DTT
[13] = 1 mM, nonreducing conditions (absence of DTT)

In the case of `Nc1ncnc2c1ncn2C1C(F)=C(CCO)C(O)C1O` (stereo not drawn) [FHNA, 6′-fluoro-homoneplanocin A], the “Protection against SINV infection” value [1] is reported as “did not confer protection; also recorded: not sensitive”, the “SI (CHIKV)” value ([2]; CC50/EC50) is reported as >1,000 and the EC50 ([2]; read-out: EC50 (CHIKV), VeroE6 cells, MOI 0.005, MTS at 96 hpi, mean ± SD) is reported as 180 ± 110 nM. For the same compound, the “Reduction of CHIKV infectious progeny titers vs infected untreated cells” value ([3]; 5 μM, VeroE6, MOI 1, 20 hpi, plaque assay) was 2.5 log10, the “Levels of genomic, subgenomic and negative-strand CHIKV RNA” value ([3]; 0.1 to 10 μM, 8 hpi, in-gel hybridization) was “reduced in a dose-dependent manner” and the “Infectious progeny titers lower than untreated controls” value ([4]; 12 hpi) was “at least 1.5 log10”. For the same compound, the “Infectious progeny titers lower than untreated controls” value ([4]; 24 hpi) was ≥ 1.2 log10, the Fold resistance ([5]; rCHIKV nsP1-G230R + nsP1-K299E + nsP3-*524R, EC50 mutant/EC50 wt) was 122 and the EC50 ([5]; rCHIKV nsP1-G230R + nsP1-K299E + nsP3-*524R) was 25600 ± 100 nM. For the same compound, the Fold resistance ([5]; rCHIKV nsP1-G230R + nsP1-K299E, EC50 mutant/EC50 wt) was 87, the EC50 ([5]; rCHIKV nsP1-G230R + nsP1-K299E) was 18200 ± 4200 nM and the Fold resistance ([5]; rCHIKV nsP1-G230R, EC50 mutant/EC50 wt) was 2. For the same compound, the EC50 ([5]; rCHIKV nsP1-G230R) was 500 ± 330 nM, the Fold resistance ([5]; rCHIKV nsP1-K299E, EC50 mutant/EC50 wt) was 2 and the EC50 ([5]; rCHIKV nsP1-K299E) was 500 ± 80 nM. It also gave a Fold resistance ([5]; rCHIKV nsP1-L455P, EC50 mutant/EC50 wt) of 5, an EC50 ([5]; rCHIKV nsP1-L455P) of 1100 ± 1100 nM and a Fold resistance ([5]; rCHIKV nsP1-R171Q + nsP2-A511S + nsP3-H342Q, EC50 mutant/EC50 wt) of 49. The EC50 ([5]; rCHIKV nsP1-R171Q + nsP2-A511S + nsP3-H342Q) was 10200 ± 2600 nM, the Fold resistance ([5]; rCHIKV nsP1-R171Q + nsP2-A511S, EC50 mutant/EC50 wt) was 33 and the EC50 ([5]; rCHIKV nsP1-R171Q + nsP2-A511S) was 6900 ± 2600 nM. The Fold resistance ([5]; rCHIKV nsP1-R171Q + nsP3-A137V, EC50 mutant/EC50 wt) was 18, the EC50 ([5]; rCHIKV nsP1-R171Q + nsP3-A137V) was 3900 ± 1300 nM and the Fold resistance ([5]; rCHIKV nsP1-R171Q, EC50 mutant/EC50 wt) was 3. For the same compound, the EC50 ([5]; rCHIKV nsP1-R171Q) was 580 ± 370 nM, the Fold resistance ([5]; rCHIKV nsP2-A511S + nsP3-H342Q, EC50 mutant/EC50 wt) was 1 and the Fold resistance ([5]; rCHIKV nsP2-A511S, EC50 mutant/EC50 wt) was 9. For the same compound, the EC50 ([5]; rCHIKV nsP2-A511S) was 1900 ± 600 nM, the Fold resistance ([5]; rCHIKV nsP2-T675A + nsP3-H342Q (H342Q reverted back to wt), EC50 mutant/EC50 wt) was 36 and the EC50 ([5]; rCHIKV nsP2-T675A + nsP3-H342Q (H342Q reverted back to wt)) was 7600 ± 200 nM. The Fold resistance ([5]; rCHIKV nsP2-T675A + nsP3-H342Q + nsP3-*524R, EC50 mutant/EC50 wt) was 48, the EC50 ([5]; rCHIKV nsP2-T675A + nsP3-H342Q + nsP3-*524R) was 10100 ± 6800 nM and the Fold resistance ([5]; rCHIKV nsP2-T675A, EC50 mutant/EC50 wt) was 4. The EC50 ([5]; rCHIKV nsP2-T675A) was 800 ± 80 nM, the Fold resistance ([5]; rCHIKV nsP3-*524R, EC50 mutant/EC50 wt) was 40 and the EC50 ([5]; rCHIKV nsP3-*524R) was 8500 ± 2300 nM. For the same compound, the Fold resistance ([5]; rCHIKV nsP3-G177R, EC50 mutant/EC50 wt) was 2, the EC50 ([5]; rCHIKV nsP3-G177R) was 510 ± 20 nM and the Fold resistance ([5]; rCHIKV nsP3-H342Q, EC50 mutant/EC50 wt) was 5. For the same compound, the EC50 ([5]; rCHIKV nsP3-H342Q) was 940 ± 10 nM, the Fold resistance ([5]; rCHIKV wt, EC50 recombinant mutant/EC50 wt) was 1 and the EC50 ([5]; rCHIKV wt, VeroE6, MOI 0.05) was 210 ± 70 nM. The IC50 [6] was 910 nM, the “SI (SFV)” value ([7]; CC50/EC50) was >48 and the EC50 ([7]; read-out: EC50 (SFV), VeroE6 cells, MOI 0.025, MTS at 40 hpi, mean ± SD) was 5200 ± 3200 nM. For the same compound, the “Effect on formation of m7GMP-nsP1 intermediate” value ([8]; 50 μM to 1 mM, 100 μM SAM, 5 mM DTT) was “did not observe any inhibitory effect”, the “Inhibition of wt SFV nsP1” value [8, 12] was “more than 50%” and the “Effect on formation of m7GMP-nsP1 intermediate at low SAM” value ([8]; 1 mM compound, 5 or 10 μM SAM) was “no direct inhibitory effect”. For the same compound, the “Inhibition of wt SFV nsP1” value [8, 13] was “more than 40%”, the CC50 ([9]; read-out: CC50 (CHIKV assay), CHIKV assay format) was > 250000 nM and the CC50 ([9]; read-out: CC50 (SFV assay), SFV assay format) was > 250000 nM. For the same compound, the CC50 ([9]; read-out: CC50 (SINV assay), SINV assay format) was > 250000 nM, the Fold resistance ([10]; CHIKV wt) was 1 and the EC50 ([10]; CHIKV wt, VeroE6, MOI 0.05) was 140 ± 10 nM. It also gave a Fold resistance ([10]; variant 1a) of 100, an EC50 ([10]; variant 1a) of 14100 ± 10 nM and a Fold resistance ([10]; variant 1b) of 24. The EC50 ([10]; variant 1b) was 3400 ± 600 nM, the Fold resistance ([10]; variant 2a) was 12 and the EC50 ([10]; variant 2a) was 1700 ± 700 nM. The Fold resistance ([10]; variant 2b) was 21, the EC50 ([10]; variant 2b) was 3000 ± 600 nM and the Fold resistance ([10]; variant 3) was 9. It also gave an EC50 ([10]; variant 3) of 1300 ± 800 nM, a Fold resistance ([10]; variant 4) of 27 and an EC50 ([10]; variant 4) of 3800 ± 300 nM. For the same compound, the Fold resistance ([10]; variant 5) was 13, the EC50 ([10]; variant 5) was 1800 ± 800 nM and the “Response of mutant vs wt SFV nsP1 to treatment” value ([11]; 50 μM to 1 mM, standard conditions) was “no difference between wt and mutant SFV nsP1 proteins”. For the same compound, the “Further reduction in signal in the presence of NAD+” value [11, 12] was “about 6%”, the “Reduction of the signal” value ([11]; 1 mM compound + 1 mM NAD+, nonreducing conditions) was 25% and the Reduction in signal [11, 13] was “about 20%”.
